Earlier results in US20040247689A1, “Process for preparing a pharmaceutical active ingredient with high specific surface area” (priority 2003, published 2004).

Compound: OCc1cc(C(O)CNCCCCCCOCCCCc2ccccc2)ccc1O (centres unmarked) [salmeterol xinafoate]
- solubility in chloroform (chloroform): slightly soluble
- solubility in ethanol (ethanol): slightly soluble
- solubility in isopropanol (isopropanol): slightly soluble
- solubility in methanol (methanol): freely soluble
- solubility in water (water): sparingly soluble
